Laboratory results from ChEMBL document CHEMBL1201862, “PubChem BioAssay data set” (2004).
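Where inhibition never reached the appropriate level, the endpoint shown equals the highest concentration tested. Otherwise, values were interpolated linearly from a five-concentration, 48-hour dose response in 96-well plates. At the GI50, growth is halved.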 The source made the active and inactive calls. No stated cut-off is given here; in the data, active = GI50 up to about 1.1 µM and inactive = higher.

How the values were obtained:
Assay in all cases: DTP human tumour cell line panel, 48 h
LOX IMVI = system: LOX IMVI
SK-MEL-2 = system: SK-MEL-2
786-0 = system: 786-0
PC-3 = system: PC-3
UACC-62 = system: UACC-62
HL-60 = system: HL-60
UO-31 = system: UO-31
EKVX = system: EKVX
UACC-257 = system: UACC-257
A498 = system: A498
SK-MEL-5 = system: SK-MEL-5
MOLT-4 = system: MOLT-4
IGROV-1 = system: IGROV-1
NCI-H23 = system: NCI-H23
MCF7 = system: MCF7
NCI-H226 = system: NCI-H226
SF-539 = system: SF-539
SK-OV-3 = system: SK-OV-3
HOP-92 = system: HOP-92

| Structure (SMILES) | GI50 (LOX IMVI) | GI50 (SK-MEL-2) | GI50 (786-0) | GI50 (PC-3) | GI50 (UACC-62) | GI50 (HL-60) | GI50 (UO-31) | GI50 (EKVX) | GI50 (UACC-257) | GI50 (A498) | GI50 (SK-MEL-5) | GI50 (MOLT-4) | GI50 (IGROV-1) | GI50 (NCI-H23) | GI50 (MCF7) | GI50 (NCI-H226) | GI50 (SF-539) | GI50 (SK-OV-3) | GI50 (HOP-92) |
| --- | --- | --- | --- | --- | --- | --- | --- | --- | --- | --- | --- | --- | --- | --- | --- | --- | --- | --- | --- |
| COc1cc(OC)c(NC2=NCCO2)cc1Cl | 31.4 µM (inactive) | 17.3 µM (inactive) | 30.1 µM (inactive) | 24.3 µM (inactive) | 60.7 µM (inactive) | 43.3 µM (inactive) | 91.6 µM (inactive) | 61.9 µM (inactive) | 31 µM (inactive) | 32.7 µM (inactive) | 23.1 µM (inactive) | 44.2 µM (inactive) | 38 µM (inactive) | 22.2 µM (inactive) | 49.1 µM (inactive) | 25.7 µM (inactive) | 25.5 µM (inactive) | – | – |
| Cc1cc(N(C)C)ccc1/N=N/c1ccc2ncccc2c1 | – | > 100 µM (inactive) | > 100 µM (inactive) | 59.2 µM (inactive) | > 100 µM (inactive) | 19.9 µM (inactive) | > 100 µM (inactive) | 23.6 µM (inactive) | 98.4 µM (inactive) | – | 17.2 µM (inactive) | 16.8 µM (inactive) | 86.3 µM (inactive) | 59.3 µM (inactive) | 20.3 µM (inactive) | 31.8 µM (inactive) | > 100 µM (inactive) | > 100 µM (inactive) | > 100 µM (inactive) |
| CCC(=O)NCCc1c2c3c(ccnc3c3ncsc13)-c1ccccc1N2 [KUANONIAMINE C] | 1.05 µM (active) | 43.2 µM (inactive) | 0.791 µM (active) | 1.41 µM (inactive) | 1.63 µM (inactive) | 0.845 µM (active) | 0.53 µM (active) | 5.22 µM (inactive) | 6 µM (inactive) | 0.989 µM (active) | 2.72 µM (inactive) | 1.4 µM (inactive) | 2.81 µM (inactive) | 1.92 µM (inactive) | 0.0223 µM (active) | 0.91 µM (active) | 1.06 µM (active) | 12.2 µM (inactive) | – |
| COc1ccc(OC)c(C(=O)c2cccc(C(=O)c3cc(OC)ccc3OC)n2)c1 | 25.5 µM (inactive) | 23 µM (inactive) | 68.9 µM (inactive) | 33.6 µM (inactive) | 31.1 µM (inactive) | 18.5 µM (inactive) | 17.9 µM (inactive) | 41.1 µM (inactive) | 53.2 µM (inactive) | – | 15 µM (inactive) | 30.8 µM (inactive) | 38.8 µM (inactive) | 20 µM (inactive) | 26.5 µM (inactive) | 27.3 µM (inactive) | 28.6 µM (inactive) | 46.1 µM (inactive) | – |
| CNCCN[C@@H]1c2cc3c(cc2[C@@H](c2cc(OC)c(O)c(OC)c2)[C@H]2C(=O)OC[C@@H]21)OCO3 | 0.153 µM (active) | 0.44 µM (active) | 0.144 µM (active) | 0.649 µM (active) | 0.132 µM (active) | < 0.016 µM (active) | 1.32 µM (inactive) | 2.23 µM (inactive) | 0.652 µM (active) | – | 0.148 µM (active) | 0.0104 µM (active) | 0.418 µM (active) | 0.185 µM (active) | 0.0296 µM (active) | 0.0946 µM (active) | 0.0678 µM (active) | 0.264 µM (active) | – |
| CC(=O)c1c(SCCN2CCCCCC2)n(-c2ccccc2)c(=S)n(-c2ccccc2)c1=O | 3.16 µM (inactive) | 19.4 µM (inactive) | 1.73 µM (inactive) | 5.26 µM (inactive) | 7.85 µM (inactive) | 0.019 µM (active) | – | 19.2 µM (inactive) | 4.07 µM (inactive) | 13.4 µM (inactive) | 9.68 µM (inactive) | 2.16 µM (inactive) | 8.3 µM (inactive) | 17.3 µM (inactive) | – | 29 µM (inactive) | 6 µM (inactive) | 48.3 µM (inactive) | 6.53 µM (inactive) |
| O=c1ccn(Cc2ccccc2CCl)c(=O)[nH]1 | – | 32.7 µM (inactive) | 20.7 µM (inactive) | 31.8 µM (inactive) | 26.9 µM (inactive) | 37.2 µM (inactive) | 29.3 µM (inactive) | 25.4 µM (inactive) | 25.8 µM (inactive) | – | 3 µM (inactive) | 40.6 µM (inactive) | 24.3 µM (inactive) | 20.4 µM (inactive) | 23.6 µM (inactive) | – | 24 µM (inactive) | 46.5 µM (inactive) | 57.9 µM (inactive) |
| CCC(=O)NC(Nc1ccccc1F)(C(F)(F)F)C(F)(F)F | > 100 µM (inactive) | > 100 µM (inactive) | – | > 100 µM (inactive) | 40.6 µM (inactive) | > 100 µM (inactive) | > 100 µM (inactive) | > 100 µM (inactive) | > 100 µM (inactive) | – | > 100 µM (inactive) | > 100 µM (inactive) | > 100 µM (inactive) | > 100 µM (inactive) | > 100 µM (inactive) | – | > 100 µM (inactive) | > 100 µM (inactive) | > 100 µM (inactive) |
